According to ChEMBL document CHEMBL1138724, “Synthesis and anticonvulsant activity of new 2-substituted-5- [2-(2-fluorophenoxy)phenyl]-1,3,4-oxadiazoles and 1,2,4-triazoles” (Bioorg Med Chem Lett, 2004):

Columns and labels:
[1] = tested on: Mus musculus; experiment: Effective dose required to protect mice against convulsion induced by a lethal dose of PTZ (100 mg/kg) was determined; assay type: functional
[2] = Lethal dose in mice; assay type: toxicity; settings: mouse, in vivo
[3] = species: Mus musculus; experiment: Effective dose required to protect mice against convulsion induced electroshock was determined by MES test; assay type: functional
[4] = tested on: Mus musculus; experiment: Effective dose required to protect mice against convulsion induced by a lethal dose of PTZ (100 mg/kg) was determined in the presence of 10 mg/kg flumazenil; assay type: functional
[5] = tested on: Mus musculus; experiment: Effective dose required to protect mice against convulsion induced electroshock was determined by MES test in the presence of 10 mg/kg flumazenil

SMILES	ED50 [1]	LD50 [2]	ED50 [3]	ED50 [4]	ED50 [5]
CCOc1n[nH]c(-c2ccccc2Oc2ccccc2F)n1	84.8 mg/kg	> 300 mg/kg	–	–	–
Fc1ccccc1Oc1ccccc1-c1nnc(S)o1	> 100 mg/kg	> 300 mg/kg	43.1 mg/kg	–	–
Nc1nnc(-c2ccccc2Oc2ccccc2F)o1	–	> 300 mg/kg	9.57 mg/kg	39.2 mg/kg	–
Fc1ccccc1Oc1ccccc1-c1n[nH]c(S)n1	> 100 mg/kg	> 300 mg/kg	92 mg/kg	–	–
Oc1nnc(-c2ccccc2Oc2ccccc2F)o1	–	> 300 mg/kg	> 100 mg/kg	–	–
CSc1nnc(-c2ccccc2Oc2ccccc2F)o1	–	> 300 mg/kg	> 100 mg/kg	–	–
CN1C(=O)CN=C(c2ccccc2)c2cc(Cl)ccc21 [DIAZEPAM]	1.87 mg/kg	–	–	–	1.57 mg/kg
